# Reference: US8808702B2, “Sulfide, sulfoxide and sulfone chalcone analogues, derivatives thereof and therapeutic uses thereof” (Temple University-of the Commonwealth System of Higher …, priority 2006, dated 2014)
# Assays:
# [1] = tested on: K562 (chronic myelogenous leukaemia); test: Effect of compounds on tumor cell lines (assay of Latham et al.), K562; type: cell-based; conditions: K562 cells, 96 hours after treatment, 1 μM to 100 μM; read-out: K 562 potency (IC50)
# Summary of the method: (§1)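 K562 or DU145 cells plated at 2.5×10^4 cells/well, treated 24 h later with compound in DMSO at 1 μM to 100 μM (0.1 μM to 100 μM for one compound). Activity judged by microscopic observation after 96 h; where needed, viable cells counted by trypan blue exclusion.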
# [2] = tested on: DU145 (prostate cancer); test: Effect of compounds on tumor cell lines (assay of Latham et al.), DU145; type: cell-based; conditions: DU145 cells, 96 hours after treatment, 1 μM to 100 μM; read-out: DU 145 potency (IC50)
# Summary of the method: as §1
SMILES,IC50 [1] [µM],IC50 [2] [µM]
Cc1ccc(CSC(=Cc2c(O)cc(O)cc2O)C(=O)c2ccc(Cl)cc2)cc1 [Example 272],50 to 100,50 to 100
Cc1ccc(CSC(=Cc2ccccc2OCc2ccccc2)C(=O)c2ccc(Cl)cc2)cc1 [Example 274],1 to 10,1 to 10
Cc1ccc(CSC(=Cc2cc([N+](=O)[O-])ccc2F)C(=O)c2ccc(Cl)cc2)cc1 [Example 276],1 to 10,1 to 10
Cc1ccc(CSC(=Cc2ccccc2F)C(=O)c2ccc(Br)cc2)cc1 [Example 277],1 to 10,10 to 25
Cc1ccc(CSC(=Cc2ccc[nH]2)C(=O)c2ccc(Cl)cc2)cc1 [Example 280],1 to 10,25 to 50
Cc1ccc(CSC(=Cc2cc(Cl)cc(Cl)c2)C(=O)c2ccc(Cl)cc2)cc1 [Example 281],10 to 25,10 to 25
Cc1ccc(CSC(=Cc2sccc2C)C(=O)c2ccc(Cl)cc2)cc1 [Example 283],10 to 25,10 to 25
CCN(CC)CCNC(=O)c1c(C)[nH]c(C=C(SCc2ccc(C)cc2)C(=O)c2ccc(C(=O)O)cc2)c1C [Example 284],50 to 100,50 to 100
Cc1ccc(CSC(=Cc2ccc(Br)cc2)C(=O)c2ccc(Cl)cc2)cc1 [Example 286],1 to 10,10 to 25
Cc1ccc(CSC(=Cc2ccc(Cl)c([N+](=O)[O-])c2)C(=O)c2ccc(C(=O)O)cc2)cc1 [Example 287],≤ 1,1 to 10
Cc1ccc(CSC(=Cc2ccc(Cl)cc2)C(=O)c2ccc(Cl)cc2)cc1 [Example 288],1 to 10,10 to 25
Cc1ccc(CSC(=Cc2ccc(F)cc2C(F)(F)F)C(=O)c2ccc(Cl)cc2)cc1 [Example 290],50 to 100,50 to 100
Cc1ccc(CSC(=Cc2ccc(F)c(C)c2)C(=O)c2ccc(Cl)cc2)cc1 [Example 291],10 to 25,25 to 50
Cc1ccc(CSC(=Cc2ccc(O)cc2)C(=O)c2ccc(Cl)cc2)cc1 [Example 292],1 to 10,10 to 25
CSc1ccc(C=C(SCc2ccc(C)cc2)C(=O)c2ccc(Cl)cc2)cc1 [Example 294],10 to 25,25 to 50
Cc1ccc(CSC(=Cc2c[nH]c3ccc(Cl)cc23)C(=O)c2ccc(Cl)cc2)cc1 [Example 296],1 to 10,1 to 10
O=C(O)c1ccc(C(=O)C(=Cc2ccc(Br)c([N+](=O)[O-])c2)SCc2ccc(Cl)cc2Cl)cc1 [Example 299],≤ 1,1 to 10
O=C(O)c1ccc(C(=O)C(=Cc2ccc(Cl)c([N+](=O)[O-])c2)SCc2ccc(Cl)cc2Cl)cc1 [Example 300],≤ 1,1 to 10
O=C(O)c1ccc(C(=O)C(=Cc2ccc(F)c([N+](=O)[O-])c2)SCc2ccc(Cl)cc2Cl)cc1 [Example 301],≤ 1,1 to 10

SMILES,IC50 [1] [µM],IC50 [2] [µM]
O=C(O)c1ccc(C(=O)C(=Cc2ccc(Cl)c([N+](=O)[O-])c2)SCc2ccccc2F)cc1 [Example 304],≤ 1,1 to 10
CC1=CC(=O)C(C)=C(C(C)(C)CC(=O)Oc2cc(C=C(SCc3ccc(Br)cc3)C(=O)c3ccc(Br)cc3)ccc2[N+](=O)[O-])C1=O [Example 307],1 to 10,1 to 10
CN1CCN(c2ccc(C=C(SCc3ccc(Br)cc3)C(=O)c3ccc(C(=O)O)cc3)cc2[N+](=O)[O-])CC1 [Example 308],1 to 10,10 to 25
CCOC(=O)c1c(C)[nH]c(C=C(SCc2ccc(Br)cc2)C(=O)c2ccc(SCc3ccc(Br)cc3)c([N+](=O)[O-])c2)c1C [Example 309],> 100,> 100
O=C(C(=Cc1ccc(F)c([N+](=O)[O-])c1)SCc1ccc(Br)cc1)c1c(F)c(F)c(F)c(F)c1F [Example 310],1 to 10,1 to 10
CN1CCN(CCNC(=O)c2ccc(C(=O)C(=Cc3ccc(F)c([N+](=O)[O-])c3)SCc3ccc(Br)cc3)cc2)CC1 [Example 311],≤ 1,1 to 10
O=C(NCCN1CCOCC1)c1ccc(C(=O)C(=Cc2ccc(F)c([N+](=O)[O-])c2)SCc2ccc(Br)cc2)cc1 [Example 312],1 to 10,1 to 10
CCN(CC)CCNC(=O)c1ccc(C(=O)C(=Cc2ccc(F)c([N+](=O)[O-])c2)SCc2ccc(Br)cc2)cc1 [Example 313],≤ 1,1 to 10
O=C(C(=Cc1ccc(F)c([N+](=O)[O-])c1)SCc1ccc(Br)cc1)c1ccc(C(=O)N2CCN(CCO)CC2)cc1 [Example 316],≤ 1,≤ 1
O=C(C(=Cc1ccc(F)cc1)SCc1ccc(Br)cc1)c1ccc(SCc2ccc(Br)cc2)c([N+](=O)[O-])c1 [Example 319],> 100,> 100
O=C(C(=Cc1ccc([N+](=O)[O-])cc1)SCc1ccc(Br)cc1)c1ccc(Br)cc1 [Example 320],1 to 10,1 to 10
O=C(O)c1ccc(C=C(SCc2ccc(Cl)cc2)C(=O)c2ccc(C(=O)O)cc2)cc1 [Example 323],> 100,> 100
O=C(C(=Cc1ccc(C(F)(F)F)cc1)SCc1ccc(Cl)cc1)c1ccc(Cl)cc1 [Example 327],1 to 10,1 to 10
O=C(O)c1ccc(C(=O)C(=Cc2ccc(N3CCN(Cc4ccccc4)CC3)c([N+](=O)[O-])c2)SCc2ccc(F)cc2)cc1 [Example 328],1 to 10,1 to 10
CN1CCN(CCNc2ccc(C=C(SCc3ccc(F)cc3)C(=O)c3ccc(F)cc3)cc2[N+](=O)[O-])CC1 [Example 329],≤ 1,1 to 10
Nc1ccc(/C=C(/SCc2ccc(F)cc2)C(=O)c2ccc(C(=O)O)cc2)cc1[N+](=O)[O-] [Example 333],10 to 25,10 to 25
O=C(/C(=C\c1ccc(F)c([N+](=O)[O-])c1)SCc1ccc(F)cc1)c1ccc(SCc2ccc(F)cc2)c([N+](=O)[O-])c1 [Example 335],1 to 10,10 to 25
Cc1ccc(S(=O)(=O)Oc2ccc(C(=O)/C(=C\c3ccc(F)c([N+](=O)[O-])c3)SCc3ccc(F)cc3)cc2)cc1 [Example 336],1 to 10,1 to 10

# Other lines, results leading:
IC50 [1] [µM],IC50 [2] [µM],SMILES
10 to 25,10 to 25,Cc1ccc(CSC(=Cc2cc(C)ccc2C)C(=O)c2ccc(Cl)cc2)cc1 [Example 273]
10 to 25,10 to 25,COc1ccccc1C=C(SCc1ccc(C)cc1)C(=O)c1ccc(Cl)cc1 [Example 279]
10 to 25,10 to 25,Cc1ccc(CSC(=Cc2ccc(N(C)C)cc2)C(=O)c2ccc(Cl)cc2)cc1 [Example 285]
25 to 50,25 to 50,CCOc1ccc(C=C(SCc2ccc(C)cc2)C(=O)c2ccc(Cl)cc2)cc1OC [Example 289]
25 to 50,> 100,CSc1ccc(C=C(SCc2ccc(C)cc2)C(=O)c2ccc(Br)cc2)cc1 [Example 293]
1 to 10,1 to 10,Cc1ccc(CSC(=Cc2c[nH]c3ccc(Br)cc23)C(=O)c2ccc(Cl)cc2)cc1 [Example 295]
50 to 100,50 to 100,Cc1ccc(CSC(=Cc2ccc(C)s2)C(=O)c2ccc(Cl)cc2)cc1 [Example 298]
1 to 10,1 to 10,O=C(O)c1ccc(C(=O)C(=Cc2ccc(Br)c([N+](=O)[O-])c2)SCc2ccccc2Cl)cc1 [Example 302]
1 to 10,1 to 10,O=C(O)c1ccc(C(=O)C(=Cc2ccc(F)c([N+](=O)[O-])c2)SCc2ccccc2Cl)cc1 [Example 303]
10 to 25,10 to 25,COc1cc(OC)c(OC)cc1C=C(SCc1ccc(Br)cc1)C(=O)c1ccc([N+](=O)[O-])cc1 [Example 305]
10 to 25,10 to 25,O=C(O)c1ccc(C(=O)C(=Cc2ccccc2F)SCc2ccc(Br)cc2)cc1 [Example 306]
1 to 10,1 to 10,CN1CCN(CCCNC(=O)c2ccc(C(=O)C(=Cc3ccc(F)c([N+](=O)[O-])c3)SCc3ccc(Br)cc3)cc2)CC1 [Example 314]
1 to 10,1 to 10,O=C(C(=Cc1ccc(F)c([N+](=O)[O-])c1)SCc1ccc(Br)cc1)c1ccc(C(=O)N2CCN(c3ccc(C(F)(F)F)cn3)CC2)cc1 [Example 315]
> 100,> 100,O=C(C(=Cc1ccc(F)c([N+](=O)[O-])c1)SCc1ccc(Br)cc1)c1ccc(Cl)c([N+](=O)[O-])c1 [Example 317]
≤ 1,≤ 1,O=C(C(=Cc1ccc(F)c([N+](=O)[O-])c1)SCc1ccc(Br)cc1)c1ccc(F)cc1 [Example 318]
1 to 10,1 to 10,O=C(C(=Cc1cccnc1)SCc1ccc(Cl)cc1)c1ccc(Br)cc1 [Example 321]
1 to 10,1 to 10,O=C(C(=Cc1cccnc1)SCc1ccc(Cl)cc1)c1ccc(Cl)cc1 [Example 322]
1 to 10,10 to 25,O=C(C(=Cc1ccc(Cl)cc1)SCc1ccc(Cl)cc1)c1ccc(Cl)cc1 [Example 324]
1 to 10,1 to 10,O=C(C(=Cc1ccc([N+](=O)[O-])cc1)SCc1ccc(Cl)cc1)c1ccc(Cl)cc1 [Example 326]
≤ 1,1 to 10,O=C(C(=Cc1ccc(N2CCN(CCO)CC2)c([N+](=O)[O-])c1)SCc1ccc(F)cc1)c1ccc(F)cc1 [Example 330]
≤ 1,1 to 10,O=C(C(=Cc1ccc(C(=O)N2CCN(CCO)CC2)cc1)SCc1ccc(F)cc1)c1ccc(F)c([N+](=O)[O-])c1 [Example 331]
1 to 10,10 to 25,CC(=O)Nc1ccc(/C=C(/SCc2ccc(F)cc2)C(=O)c2ccc(C(=O)O)cc2)cc1[N+](=O)[O-] [Example 332]
> 100,> 100,O=C(O)c1ccc(C(=O)/C(=C\c2ccc(Br)cc2)SCc2ccc(F)cc2)cc1 [Example 334]
